Patent publication US12559464B2, “Quinazolinone dione compounds and uses thereof” (Edgewise Therapeutics, Inc., priority 2023, dated 2026)

Tests used:
[1] = tested on: myosin ATPase, Rabbit Psoas myofibrils; experiment: Myofibril ATPase assay, rabbit psoas (skeletal) myofibrils; assay type: biochemical; settings: Rabbit Psoas Prep pCa 25 GEOM_MEAN; for Rabbit Psoas EC25 (Y75 value): concentration required to reduce myosin ATP-ase activity by 25%
[2] = tested on: myosin ATPase, Porcine Atria myofibrils; experiment: Myofibril ATPase assay, porcine atria myofibrils; assay type: biochemical; settings: concentration required to reduce myosin ATP-ase activity by 25%; Porcine Atria Prep pCa 25 GEOM_MEAN
[3] = biological target: T1, myosin ATPase, Porcine Ventricle myofibrils (Sus scrofa, UniProt P79293); experiment: Myofibril ATPase assay, porcine ventricle myofibrils; assay type: biochemical, porcine (Yucatan minipigs); settings: concentration required to reduce myosin ATP-ase activity by 25%; Porcine Ventricle Prep pCa 25 GEOM_MEAN
T1 construct: Myofibrils from porcine cardiac muscle was isolated from the left ventricle of Yucatan minipigs; tissue Exemplar Genetics; host or cells: left ventricle of Yucatan minipigs, myofibrils
In short: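 Myofibrils from Yucatan minipig left ventricle; ADP production coupled via PK-LDH to NADH loss, read kinetically at 340 nm every 1.5–2 min for 75 min in PIPES/MgCl2 pH 7.0 buffer. Slopes normalized to vehicle and fit to 4-parameter logistic; values are concentrations giving 75% (inhibition) or 125% (activation) of vehicle activity.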

T1 sequence (P79293 whole entry): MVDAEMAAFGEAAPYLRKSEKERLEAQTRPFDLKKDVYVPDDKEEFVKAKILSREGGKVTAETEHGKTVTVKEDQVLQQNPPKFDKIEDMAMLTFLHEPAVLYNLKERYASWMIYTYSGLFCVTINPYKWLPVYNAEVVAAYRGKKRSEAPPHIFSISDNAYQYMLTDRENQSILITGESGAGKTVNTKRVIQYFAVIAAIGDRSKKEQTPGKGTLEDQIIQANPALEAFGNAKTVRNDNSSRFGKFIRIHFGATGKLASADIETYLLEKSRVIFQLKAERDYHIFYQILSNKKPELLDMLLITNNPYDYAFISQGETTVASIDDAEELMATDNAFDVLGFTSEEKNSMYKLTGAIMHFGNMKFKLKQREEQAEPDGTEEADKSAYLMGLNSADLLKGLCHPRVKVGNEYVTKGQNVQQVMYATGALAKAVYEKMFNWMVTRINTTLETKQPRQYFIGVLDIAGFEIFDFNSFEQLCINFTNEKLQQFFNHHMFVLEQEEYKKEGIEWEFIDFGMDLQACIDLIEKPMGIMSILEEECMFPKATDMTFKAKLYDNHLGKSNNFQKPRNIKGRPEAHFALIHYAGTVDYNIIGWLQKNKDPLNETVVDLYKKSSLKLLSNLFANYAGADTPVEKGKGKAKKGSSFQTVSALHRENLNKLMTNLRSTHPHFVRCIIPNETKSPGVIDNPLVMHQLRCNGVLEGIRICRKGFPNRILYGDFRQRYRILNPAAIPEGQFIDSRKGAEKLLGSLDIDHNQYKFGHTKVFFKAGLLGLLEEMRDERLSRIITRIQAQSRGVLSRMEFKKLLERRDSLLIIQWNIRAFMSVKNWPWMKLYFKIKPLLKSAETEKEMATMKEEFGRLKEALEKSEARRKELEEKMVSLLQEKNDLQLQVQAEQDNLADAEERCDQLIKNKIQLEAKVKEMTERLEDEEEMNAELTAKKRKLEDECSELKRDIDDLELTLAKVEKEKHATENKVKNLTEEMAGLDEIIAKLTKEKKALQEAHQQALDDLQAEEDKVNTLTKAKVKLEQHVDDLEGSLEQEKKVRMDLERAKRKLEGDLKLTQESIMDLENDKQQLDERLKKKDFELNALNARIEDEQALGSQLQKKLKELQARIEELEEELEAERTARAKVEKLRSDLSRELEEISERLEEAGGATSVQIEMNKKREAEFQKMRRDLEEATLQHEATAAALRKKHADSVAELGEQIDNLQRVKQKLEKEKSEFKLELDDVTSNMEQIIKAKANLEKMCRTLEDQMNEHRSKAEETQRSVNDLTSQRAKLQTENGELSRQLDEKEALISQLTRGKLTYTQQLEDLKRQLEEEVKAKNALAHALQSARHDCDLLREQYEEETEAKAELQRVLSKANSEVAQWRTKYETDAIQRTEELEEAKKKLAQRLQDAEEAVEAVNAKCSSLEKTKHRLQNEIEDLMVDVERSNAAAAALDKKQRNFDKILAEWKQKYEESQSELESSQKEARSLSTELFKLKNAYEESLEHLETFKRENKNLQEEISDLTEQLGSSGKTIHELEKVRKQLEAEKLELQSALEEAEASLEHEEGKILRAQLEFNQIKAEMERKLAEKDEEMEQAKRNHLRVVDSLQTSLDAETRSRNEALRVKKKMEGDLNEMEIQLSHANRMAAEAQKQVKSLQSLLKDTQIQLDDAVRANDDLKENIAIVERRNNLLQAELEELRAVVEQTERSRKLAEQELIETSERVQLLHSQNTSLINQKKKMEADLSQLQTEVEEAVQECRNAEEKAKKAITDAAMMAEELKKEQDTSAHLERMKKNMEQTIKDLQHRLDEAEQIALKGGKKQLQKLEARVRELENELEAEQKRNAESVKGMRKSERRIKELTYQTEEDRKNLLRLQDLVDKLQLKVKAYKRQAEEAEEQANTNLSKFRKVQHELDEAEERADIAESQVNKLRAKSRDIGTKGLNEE

| SMILES | Rabbit Psoas EC25 (Y75 value) [1] [µM] | Porcine Atria EC25 (Y75 value) [2] [µM] | Porcine Ventricle EC25 (Y75 value) [3] [µM] | Rabbit Psoas Y125 value (marked #) ([1]; concentration required to increase myosin ATP-ase activity by 25%) |
| --- | --- | --- | --- | --- |
| C[C@H](NC(=O)C1(n2c(=O)[nH]c3cccc(C#N)c3c2=O)CC1)c1ncc(C#N)cc1F (single isomer, unassigned) [Compound 3015] | 0.89 | 1.89 | 10.96 |  |
| COc1ccc([C@H](C)NC(=O)Cn2c(=O)[nH]c3ccccc3c2=O)cc1 (single isomer, unassigned) [Compound 529] | 100 | 100 | 100 |  |
| C[C@H](NC(=O)Cn1c(=O)[nH]c2ccc(F)cc2c1=O)c1cnc(C#N)nc1 (single isomer, unassigned) [Compound 210] | 0.174 | 0.118 | 0.559 |  |
| CC(NC(=O)Cn1c(=O)[nH]c2ccccc2c1=O)c1cnn(C)c1 (stereo not drawn) [Compound 603, 2-(2,4-dioxo-1,4-dihydroquinazolin-3(2H)-yl)-N-(1-(1-methyl-1H-pyrazol-4-yl)ethyl)acetamide] | 100 | 100 | 100 |  |
| COc1cc2c(cc1OC)C(NC(=O)Cn1c(=O)[nH]c3ccccc3c1=O)CC2 (stereo not drawn) [Compound 703, N-(5,6-dimethoxy-2,3-dihydro-1H-inden-1-yl)-2-(2,4-dioxo-1,4-dihydroquinazolin-3(2H)-yl)acetamide] | 100 | 100 | 100 |  |
| C[C@@H](NC(=O)Cn1c(=O)[nH]c2ccc(F)cc2c1=O)c1cnc(C#N)nc1 (single isomer, unassigned) [Compound 209] | 39.51 | 100 | 100 |  |
| CC(NC(=O)Cn1c(=O)[nH]c2ccccc2c1=O)c1cncnc1 (stereo not drawn) [Compound 214, 2-(2,4-dioxo-1,4-dihydroquinazolin-3(2H)-yl)-N-(1-(pyrimidin-5-yl)ethyl)acetamide] | 100 | 100 | 100 |  |
| Cc1nccc2[nH]c(=O)n(CC(=O)N[C@@H](C)c3ncc(C#N)cc3F)c(=O)c12 [Compound 20, (S)-N-(1-(5-cyano-3-fluoropyridin-2-yl)ethyl)-2-(5-methyl-2,4-dioxo-1,4-dihydropyrido[4,3-d]pyrimidin-3(2H)-yl)acetamide] | 0.799 | 2.095 | 7.141 |  |

More lines, now with the values ahead:

| Rabbit Psoas EC25 (Y75 value) [1] [µM] | Porcine Atria EC25 (Y75 value) [2] [µM] | Porcine Ventricle EC25 (Y75 value) [3] [µM] | Rabbit Psoas Y125 value (marked #) ([1]; concentration required to increase myosin ATP-ase activity by 25%) | SMILES |
| --- | --- | --- | --- | --- |
| 100 | 100 | 100 |  | CC(C)[C@H](NC(=O)Cn1c(=O)[nH]c2ccccc2c1=O)c1ccc(F)cc1F (single isomer, unassigned) [Compound 50] |
| 1.97 | 1.442 | 100 |  | CC(NC(=O)Cn1c(=O)[nH]c2ccccc2c1=O)c1ncc(F)cc1F (stereo not drawn) [Compound 47, N-(1-(3,5-difluoropyridin-2-yl)ethyl)-2-(2,4-dioxo-1,4-dihydroquinazolin-3(2H)-yl)acetamide] |
| 100 | 100 | 100 |  | C[C@H](NC(=O)Cn1c(=O)[nH]c2ncccc2c1=O)c1ccc(F)cc1F [Compound 302, (S)-N-(1-(2,4-difluorophenyl)ethyl)-2-(2,4-dioxo-1,4-dihydropyrido[2,3-d]pyrimidin-3(2H)-yl)acetamide] |
|  | 20.67 | 43.467 | 3.28^#^ μM | C[C@H](NC(=O)C(Cc1ccccc1)n1c(=O)[nH]c2ccccc2c1=O)c1ccc(F)cc1F (single isomer, unassigned) [Compound 504] |
